Test results from patent US20170044104A1, “NEW PESTICIDAL COMPOUNDS AND USES” (BAYER CROPSCIENCE AG, priority 2013, published 2017).

Assays:
Haemonchus contortus = Haemonchus contortus (HAEMCO) larval mortality assay; settings: 120 h; for mortality at 20 ppm: application rate 20 ppm, after 5 days, read-out: activity (percentage of larval mortality); for Emax at 0.8 ppm / Emax at 4 ppm / Emax at 20 ppm: comparative test, 5 dat, read-out: % Efficacy
Experimental: (§1) Solvent: dimethyl sulfoxide
(§2) To produce a suitable preparation of active compound, 10 mg of active compound are dissolved in 0.5 ml solvent, and the concentrate is diluted with “Ringer's solution” to the desired concentration.
Approximately 40 larvae of the red stomach worm (Haemonchus contortus) are transferred into a test tube containing compound solution.
After 5 days percentage of larval mortality are recorded. 100% efficacy means all larvae are killed, 0% efficacy means no larvae are killed.

[1] = tested on: Nippostrongylus brasiliensis; assay: Nippostrongylus brasiliensis (NIPOBR) assay, acetylcholine esterase readout; settings: 10 ppm (10 μg/ml), adult worms, read-out: activity (reduction of AChE compared to negative control)
Experimental: Adult Nippostrongylus brasiliensis were washed with saline buffer containing 100 U/ml penicillin, 0.1 mg/ml streptomycin and 2.5 μg/ml amphotericin B. Test compounds were dissolved in DMSO and worms were incubated in medium in a final concentration of 10 μg/ml (10 ppm). An aliquot of the medium was used to determine the acetylcholine esterase activity in comparison to a negative control. The principle of measuring acetylcholine esterase as readout for anthelmintic activity was described in Rapson et al (1986) and Rapson et al (1987).

Cooperia curticei = Cooperia curticei (COOPCU) larval mortality assay; settings: 120 h, application rate 20 ppm, after 5 days, read-out: activity (percentage of larval mortality)
Experimental: as §1, §2
Approximately 40 nematode larvae (Cooperia curticei) are transferred into a test tube containing the compound solution.
After 5 days percentage of larval mortality is recorded. 100% efficacy means all larvae are killed; 0% efficacy means no larvae are killed.

Meloidogyne incognita = Meloidogyne incognita (MELGIN) gall formation assay; format: in vivo; settings: 336 h, read-out: nematicidal activity (percentage of gall formation)
Experimental: Solvent: 125.0 parts by weight of acetone
To produce a suitable preparation of active compound, 1 part by weight of active compound is mixed with the stated amount of solvent, and the concentrate is diluted with water to the desired concentration.
Vessels are filled with sand, a solution of the active ingredient, a suspension containing eggs and larvae of the southern root-knot nematode (Meloidogyne incognita) and salad seeds. The salad seeds germinate and the seedlings grow. Galls develop in the roots.
After 14 days the nematicidal activity is determined on the basis of the percentage of gall formation. 100% means no galls were found and 0% means the number of galls found on the roots of the treated plants was equal to that in untreated control plants.

[2] = tested on: Dirofilaria immitis microfilariae; assay: microbe, parasite or virus in culture; settings: 72 h, read-out: EC50 (reduction of motility)

SMILES | mortality at 20 ppm (Haemonchus contortus) | inhibition at 10 ppm [1] | mortality at 20 ppm (Cooperia curticei) | pest or weed control at 20 ppm (Meloidogyne incognita) | EC50 [2] | Emax at 0.8 ppm (Haemonchus contortus) | Emax at 4 ppm (Haemonchus contortus) | Emax at 20 ppm (Haemonchus contortus)
O=C(NCC(F)(F)c1ccc(-c2cc(Cl)nc(Cl)c2)cc1Cl)c1ccccc1C(F)(F)F [Example 1-92] | 100% | ≥ 60% | 100% | – | – | – | – | –
O=C(NCCc1ccc(-c2cccnc2)cc1Cl)c1ccccc1C(F)(F)F [Example 1-33] | 100% | ≥ 60% | 100% | – | – | – | – | –
O=C(NCC(F)(F)c1ccc(-n2cc(C(F)(F)F)cn2)cc1Cl)c1cccnc1C(F)(F)F [Example 1-89] | 100% | ≥ 60% | 100% | 100% | < 5 µg/mL | – | – | –
O=C(NCC(F)c1ccc(-c2ccc(Cl)nc2)cc1Cl)c1ccccc1C(F)(F)F (centres unmarked) [Example 1-73, N-{2-[2-chloro-4-(6-chloropyridin-3-yl)phenyl]-2-fluoroethyl}-2-(trifluoromethyl) benzamide] | 100% | ≥ 60% | 100% | 100% | < 5 µg/mL | – | – | –
O=C(NCC(F)(F)c1ccc(-c2cncc(Cl)c2)cc1Cl)c1ccccc1C(F)(F)F [Example 1-97] | 100% | ≥ 60% | 100% | – | – | – | – | –
O=C(NCC(F)(F)c1ccc(-c2ccc(Cl)nc2)cc1Cl)c1ccccc1C(F)(F)F [Example 1-68] | 100% | ≥ 60% | 100% | 90% | – | – | – | –
COc1ccc(-c2ccc(C(F)(F)CNC(=O)c3ccccc3C(F)(F)F)c(Cl)c2)cn1 [Example 1-90] | 100% | ≥ 60% | 100% | – | – | – | – | –
CC(F)(CNC(=O)c1cccnc1C(F)(F)F)c1ccc(-c2cncc(F)c2)cc1Cl (centres unmarked) [Example 1-98] | 100% | ≥ 60% | 100% | – | – | – | – | –
O=C(NCC(F)c1ccc(-c2ccnc(F)c2)cc1Cl)c1ccccc1C(F)(F)F (centres unmarked) [Example 1-78] | 100% | ≥ 60% | 100% | – | < 5 µg/mL | – | – | –
O=C(NCC(F)c1ccc(-c2ccc(F)nc2)cc1Cl)c1ccccc1C(F)(F)F (centres unmarked) [Example 1-74] | 100% | ≥ 60% | 100% | 90% | < 5 µg/mL | 100% | 100% | 100%
O=C(NCCc1ccc(-c2ccc(F)nc2)cc1Cl)c1ccccc1C(F)(F)F [Example 1-44] | 100% | ≥ 60% | 100% | 90% | – | 100% | 100% | 100%
O=C(NCC(F)c1ccc(-c2ccc(F)nc2)cc1Cl)c1nccnc1C(F)(F)F (centres unmarked) [Example 1-87] | 100% | ≥ 60% | 100% | 100% | – | – | – | –
CC(F)(CNC(=O)c1ccccc1Br)c1ccc(-c2cncc(F)c2)cc1Cl (centres unmarked) [Example 1-100] | 100% | ≥ 60% | 100% | – | < 5 µg/mL | – | – | –
O=C(NCC(F)(F)c1ccc(-c2cncc(F)c2)cc1F)c1ccccc1C(F)(F)F [Example 1-111] | 100% | ≥ 60% | 100% | – | – | – | – | –
O=C(NCCc1ccc(-c2cncc(Cl)c2)cc1)c1ccccc1C(F)(F)F [Example 1-53] | 100% | ≥ 60% | 100% | – | – | – | – | –
O=C(NCCc1ccc(-c2cncc(Cl)c2)cc1Cl)c1ccccc1C(F)(F)F [Example 1-45, N-{2-[2-chloro-4-(5-chloropyridin-3-yl)phenyl]ethyl}-2-(trifluoromethyl)benzamide] | 100% | ≥ 60% | 100% | – | – | 100% | 100% | 100%

SMILES | mortality at 20 ppm (Haemonchus contortus) | inhibition at 10 ppm [1] | mortality at 20 ppm (Cooperia curticei) | pest or weed control at 20 ppm (Meloidogyne incognita) | EC50 [2] | Emax at 0.8 ppm (Haemonchus contortus) | Emax at 4 ppm (Haemonchus contortus) | Emax at 20 ppm (Haemonchus contortus)
O=C(NCC(F)(F)c1ccc(-n2cc(C(F)(F)F)cn2)cc1Cl)c1ccccc1C(F)(F)F [Example 1-69, N-[2-[2-chloro-4-[4-(trifluoromethyl)pyrazol-1-yl]phenyl]-2,2-difluoro-ethyl]-2-(trifluoromethyl)benzamide] | 100% | ≥ 60% | 100% | 100% | – | 100% | 100% | 100%
O=C(NCCc1cccc(-c2ccc(OCC(F)(F)F)nc2)c1)c1ccccc1C(F)(F)F [Example 1-1] | 80% | ≥ 60% | 80% | – | – | – | – | –
O=C(NCC(F)c1ccc(-c2cccnc2Cl)cc1Cl)c1ccccc1C(F)(F)F (centres unmarked) [Example 1-75] | 100% | ≥ 60% | 100% | – | – | – | – | –
O=C(NCC(F)c1ccc(-c2cncc(Cl)c2)cc1Cl)c1nccnc1C(F)(F)F (centres unmarked) [Example 1-82] | 100% | ≥ 60% | 100% | 100% | – | – | – | –
O=C(NCC(F)c1ccc(-c2ccc(C(F)(F)F)nc2)cc1Cl)c1ccccc1C(F)(F)F (centres unmarked) [Example 1-70] | 90% | ≥ 60% | 100% | 100% | < 5 µg/mL | – | – | –
O=C(NCC(F)c1ccc(-c2ccc(F)nc2)cc1Cl)c1cccnc1C(F)(F)F (centres unmarked) [Example 1-88] | 100% | ≥ 60% | 100% | 100% | – | – | – | –
O=C(NCC(F)c1ccc(-c2cncc(Cl)c2)cc1Cl)c1ccccc1C(F)(F)F (centres unmarked) [Example 1-77] | 100% | ≥ 60% | 100% | – | < 5 µg/mL | – | – | –
O=C(NCCc1ccc(-c2ccc(Cl)nc2Cl)cc1Cl)c1ccccc1C(F)(F)F [Example 1-49] | 90% | ≥ 60% | 100% | – | – | – | – | –
O=C(NCC(F)(F)c1ccc(-c2cncc(F)c2)cc1Cl)c1ccccc1C(F)(F)F [Example 1-96] | 100% | ≥ 60% | 100% | – | – | – | – | –
O=C(NCCc1ccc(-c2cncc(F)c2)cc1Cl)c1ccccc1C(F)(F)F [Example 1-37] | 100% | ≥ 60% | 100% | 90% | – | 100% | 100% | 100%
CC(F)(CNC(=O)c1ccccc1Cl)c1ccc(-c2cncc(F)c2)cc1Cl (centres unmarked) [Example 1-99] | 100% | ≥ 60% | 100% | – | < 5 µg/mL | – | – | –
O=C(NCC(F)(F)c1ccc(-c2ccc(F)nc2)cc1Cl)c1ccccc1C(F)(F)F [Example 1-93, N-[2-[2-chloro-4-(6-fluoro-3-pyridyl)phenyl]-2,2-difluoro-ethyl]-2-(trifluoromethyl)benzamide] | 100% | ≥ 60% | 100% | 100% | < 5 µg/mL | 100% | 100% | 100%
O=C(NCCc1ccc(-c2cccnc2Cl)cc1Cl)c1ccccc1C(F)(F)F [Example 1-48] | 100% | ≥ 60% | 100% | 90% | – | 80% | 100% | 100%
O=C(NCC(F)(F)c1ccc(-c2cncc(Cl)c2)cc1F)c1ccccc1C(F)(F)F [Example 1-107] | 100% | ≥ 60% | 100% | – | – | – | – | –
O=C(NCC(F)(F)c1ccc(-c2ccc(F)nc2)cc1F)c1ccccc1C(F)(F)F [Example 1-106] | 100% | ≥ 60% | 100% | 90% | – | – | – | –
